From patent publication US20200179479A1, “INHIBITION OF ALPHA5BETA1 INTEGRIN WITH ATN-161 AS A NOVEL THERAPY FOR VASCULAR DEMENTIA” (University of Kentucky Research Foundation, priority 2018, published 2020)
“Also recorded” adds a separate entry of the source.

Legend:
[1] = Physiological measurements (MouseOx) and body weight after reperfusion in stroked mice; type: in vivo, mouse
Method: (§1) Mice underwent transient tandem ipsilateral common carotid artery/middle cerebral artery (CCA/MCA) occlusion for 60 minutes as previously published, followed by reperfusion for 1-3 days. Briefly, a small burr hole is created directly over the M2 branch of the MCA, and a 0.0005 inch metal filament is placed under the artery on both sides of the burr hole. The CCA was then isolated and occluded using an aneurysm clip. Blood flow was determined with the Laser Doppler Perfusion Monitor (Perimed, Ardmore, Pa., USA). Animals that received less than 80% occlusion rate from baseline (i.e. pre-occlusion) were excluded from analysis. Sham animals underwent the listed procedure without vascular occlusion. All mice were allowed to recover to post-stroke day (PSD)3, during which daily body weights were measured.
Immediately following reperfusion, heart, rate, pulse distension, and body temperature were recorded using MouseOx (Starr Life Science, Holliston, Mass., USA). After 5 minutes, sterile PBS (Vehicle) or ATN-161 was injected via IP (as described below); mice were continually observed for 15 minutes post reperfusion.

integrin α5β1 [2] = target: T1, integrin α5β1 (Mus musculus, UniProt P09055+P11688); assay: MRI (ADC and T2-weighted) infarct and edema volume after experimental ischemic stroke; type: in vivo
T1 construct: Animals received an IP injection of either Vehicle (sterile PBS) or ATN-161; from tissue; host or cells: living mouse; brain / cerebrovasculature
Method: as §1
Animals received an IP injection of either Vehicle (sterile PBS) or ATN-161 (lmg/kg, Medkoo Biosciences, Morrisville, N.C., USA) immediately after reperfusion, PSD1 and on PSD2. […] Accounting for edema volume, infarct size based on TTC images was analyzed with Image J (NH) software as:
PSD3 animals were anesthetized with isoflurane and placed on a heated bed where body temperature and breathing rate were carefully monitored throughout the scan. […] All images were analyzed with ITK-SNAP (www.itksnap.org) by a blinded, independent neuroradiologist. […]

integrin α5β1 [3] = target: T1, integrin α5β1; assay: 11-point behavioral Neuroscore after experimental ischemic stroke; type: in vivo; conditions: vs Vehicle
Method: as §1
Animals received an IP injection of either Vehicle (sterile PBS) or ATN-161 (lmg/kg, Medkoo Biosciences, Morrisville, N.C., USA) immediately after reperfusion, PSD1 and on PSD2. Ischemic stroke was confirmed on 2 mm sections stained with […] (TTC; BD, Sparks, M D, USA) or Magnetic Resonance Imaging on PSD3. Accounting for edema volume, infarct size based on TTC images was analyzed with Image J (NH) software as: […]

integrin α5β1 [4] = target: T1, integrin α5β1; assay: Immunohistochemistry of integrin α5β1 (CD49e) in stroked brain; type: in vivo; conditions: 1 mg/kg IP x3; mean±SD, n=7; Vehicle 308484±53485; p=0.0835
Method: (§2) On PSD3, animals were systemically perfused with PBS (Phosphate Buffered Solution, 1×) for 5 minutes. Brains were removed, flash frozen in liquid nitrogen, and stored at −20 C until use. The brains were coronally sectioned by cryostat at 20 μm and mounted (four per slide, 2 mm separating each section) for staining. Negative controls (no primary antibody) were run in tandem with each target to determine thresholding values.
(§3) Sections were fixed in methanol:acetone (1:1), followed by blocking buffer (5% bovine serum albumin (Fisher Scientific) in PBS with 0.1% Triton-X). Sections were incubated in primary antibody overnight at 4 C (anti-rabbit PECAM at 1:100, Fisher Scientific; anti-rat CD49e at 1:250, BD Pharminagen; anti-rat CD45 at 1:200, ThermoFisher Scientific, anti-rabbit Claudin-5 at 1:200, Abcam, anti-rabbit MMP-9 at 1:100, Abcam, and anti-rabbit fibronectin at 1:100, Abcam). Sections were washed and placed in fluorophore-conjugated secondary antibody, followed by NucBlue cell nucleus counterstain (Fisher Scientific) at room temperature (Vector Labs, 1:250), then cover slipped (Vector Labs) and imaged on a Nikon Eclipse Ti and software (Nikon, Melville, N.Y., USA). Image J was used to quantify all Immunofluorescence positive pixels. CD45: One 4× image per all four sections were taken and averaged. […]

IgG = IgG immunohistochemistry (BBB permeability, IgG extravasation) in stroked brain; type: in vivo, mouse; conditions: PSD3; 1 mg/kg IP x3; mean±SD, n=8; Vehicle 70125±53485
Method: as §2
Sections were fixed in 10% phosphate-buffered formalin. After washing, IgG 568 biotinylated antibody (1:500, Thermo-Fisher Scientific) in 1% bovine serum albumin was applied to the tissue for 2 hours. Slides were then cover slipped (Vector Labs) for imaging on a Nikon Eclipse Ti and software (Nikon, Melville, N.Y., USA). Image J was used to isolate and count IgG positive pixels. Three separate 20× images per core region were taken per section and averaged.

collagen IV = assay: qPCR of ipsilateral cortex at PSD3, collagen IV; type: in vivo, mouse; conditions: relative to sham; mean±SD, n=8; Sham 1.018±0.1573, Vehicle 0.3543±0.1013
Method: (§4) On PSD3, brains were removed and sectioned at 2 mm where the ipsilateral cortical tissue and corresponding contralateral cortical tissue were isolated. All sections per animal were combined and homogenized in Trizol (Life Technologies). RNA extraction was performed according to the RNA extraction kit provided by the manufacturer (Life Technologies). RNA was converted to cDNA using a high capacity cDNA reverse transcriptase kit (Applied Bioscience, Grand Island, N.Y., USA). 18S (control; Mm03928990_g1), collagen IV (Mm00483669_m1), IL-1β (Mm00434228_m1), CXCL12 (Mm00445553_m1), and MMP9 (Mm00442991_m1) Taqman genes were analyzed using Real-time PCR (ViiA7, Life Technologies). Data was analyzed as fold change comparing vehicle and ATN-161 treated mice as a % control (sham).

MMP-9 [5] = assay: qPCR of ipsilateral cortex at PSD3, MMP-9; type: in vivo, mouse; conditions: relative to sham; mean±SD, n=7; Sham 1.018±0.1759, Vehicle 6.761±5.321
Method: as §4

IL-1β = assay: qPCR of ipsilateral cortex at PSD3, IL-1β; type: in vivo, mouse; conditions: relative to sham; mean±SD, n=7; Sham 1.023±0.1666, Vehicle 27.04±19.96
Method: as §4

CXCL12 = assay: qPCR of ipsilateral cortex at PSD3, CXCL12; type: in vivo, mouse; conditions: relative to sham; mean±SD, n=8; Sham 1.015±0.1964, Vehicle 0.5271±0.1779
Method: as §4

Claudin-5 = assay: Immunofluorescence of Claudin-5 in stroked brain; type: in vivo, mouse; conditions: mean±SD, n=6; Vehicle 19830±5538
Method: as §2, §3

MMP-9 [6] = assay: Immunohistochemical staining of MMP-9 in stroked brain; type: in vivo, mouse; conditions: mean±SD, n=7
Method: as §2, §3

α5β1 integrin [7] = target: T2, α5β1 integrin (Mus musculus, UniProt P09055+P11688); assay: BCAS mouse model, α5 staining in cortex; type: in vivo; conditions: 14 days, 1 mg/kg i.p. after surgery and every other day to day 12, n=4, preliminary data
T2 construct: Mice (WT, α5KO, DB) are subjected to either sham or BCAS (0.18 mm ID coils) surgery; from tissue; host or cells: living mouse; brain (cortex)
Method: Representative images within the cortex of α5 staining in BCAS animals treated with ATN-161 (1 mg/kg; i.p.). ATN-161 n=4
Quantification of α5-positive pixel density. ***p≤0.001 compared to sham group.
(§5) Mice (WT, α5KO, DB) are subjected to either sham or BCAS (0.18 mm ID coils) surgery. Euthanasia and brain tissue extraction, and processing for immunohistochemistry or western blot analysis (see below) will occur at early (14 days) or late (30 and 60 days) time points following BCAS. This will allow correlation of α5β1 integrin expression levels with the progression of brain injury over time, whether it could potentially contribute to this pathology early and/or late, and determine whether this is influenced by the diabetic phenotype prior to overt cerebrovascular pathology.

GFAP = assay: BCAS mouse model, GFAP (astrocyte marker) staining in striatum; type: in vivo; conditions: 14 days, striatum/white matter, 1 mg/kg i.p. after surgery and days 2, 4, 6, 8, 10, 12, n=4
Method: Representative images within the striatum of GFAP (astrocyte marker) staining in BCAS animals treated with ATN-161 (1 mg/kg; i.p.); treatment immediately after surgery and on post-stenosis days 2, 4, 6, 8, 10, 12. ATN-161: n=4
Quantification of GFAP-positive pixel density. **p≤0.01 compared to sham group.
as §5

α5β1 integrin [8] = target: T2, α5β1 integrin; assay: BCAS mouse model, y-maze % spontaneous alternation; type: in vivo; conditions: post-stenosis day 14, 1 mg/kg i.p. after surgery and days 2, 4, 6, 8, 10, 12, n=4
Method: On post-stenosis day 14, mice underwent y-maze testing and % spontaneous alternation (working memory) was quantified. BCAS animals were treated with vehicle or ATN-161 (1 mg/kg; i.p.) treatment immediately after surgery and on post-stenosis days 2, 4, 6, 8, 10, 12. […] Sham: n=4; BCAS: n=8; ATN-161: n=4
as §5

[9] = Phase I and II clinical oncology studies, 1 mg/kg 10-minute infusions: dry mouth, cellulitis, paresthesia in one out of four patients; cited from earlier work
[10] = tested on: angiogenesis and tumor growth; conditions: Donate et al.; cited from earlier work
α5β1 integrin [11] = conditions: single IP dose 24 hours after MCAO; Wu et al.; cited from earlier work
[12] = IP ATN-161 5 min after reperfusion, vs Vehicle

T2 sequence (P11688 45-898 limits assumed): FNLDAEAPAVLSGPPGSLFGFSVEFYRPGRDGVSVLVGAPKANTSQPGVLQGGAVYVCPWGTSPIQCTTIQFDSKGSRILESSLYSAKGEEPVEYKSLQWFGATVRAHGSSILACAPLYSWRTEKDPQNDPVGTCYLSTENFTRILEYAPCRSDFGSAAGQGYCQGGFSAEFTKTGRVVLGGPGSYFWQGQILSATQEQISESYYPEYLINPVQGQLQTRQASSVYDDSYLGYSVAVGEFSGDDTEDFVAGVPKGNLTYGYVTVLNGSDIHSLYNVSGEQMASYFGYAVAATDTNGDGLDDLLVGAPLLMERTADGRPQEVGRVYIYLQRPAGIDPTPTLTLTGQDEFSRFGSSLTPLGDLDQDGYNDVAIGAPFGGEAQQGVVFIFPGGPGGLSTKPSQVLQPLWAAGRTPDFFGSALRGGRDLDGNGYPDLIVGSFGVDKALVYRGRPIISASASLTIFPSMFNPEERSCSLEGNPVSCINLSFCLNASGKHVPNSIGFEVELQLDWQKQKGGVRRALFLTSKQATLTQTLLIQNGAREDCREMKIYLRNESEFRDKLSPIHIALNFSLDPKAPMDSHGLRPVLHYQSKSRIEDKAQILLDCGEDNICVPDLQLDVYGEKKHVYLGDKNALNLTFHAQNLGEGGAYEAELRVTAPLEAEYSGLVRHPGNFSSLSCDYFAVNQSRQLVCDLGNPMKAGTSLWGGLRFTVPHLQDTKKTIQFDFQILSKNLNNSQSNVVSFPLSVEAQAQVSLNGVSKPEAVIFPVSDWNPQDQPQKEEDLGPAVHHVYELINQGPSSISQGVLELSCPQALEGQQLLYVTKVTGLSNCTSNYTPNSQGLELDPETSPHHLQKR
T2 sequence (P11688 899-1053 limits assumed): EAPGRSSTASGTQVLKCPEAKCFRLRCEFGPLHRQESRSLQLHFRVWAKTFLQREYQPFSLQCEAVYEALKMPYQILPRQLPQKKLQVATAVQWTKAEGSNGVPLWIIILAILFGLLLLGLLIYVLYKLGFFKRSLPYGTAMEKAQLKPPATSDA
T2 sequence (P09055 21-798): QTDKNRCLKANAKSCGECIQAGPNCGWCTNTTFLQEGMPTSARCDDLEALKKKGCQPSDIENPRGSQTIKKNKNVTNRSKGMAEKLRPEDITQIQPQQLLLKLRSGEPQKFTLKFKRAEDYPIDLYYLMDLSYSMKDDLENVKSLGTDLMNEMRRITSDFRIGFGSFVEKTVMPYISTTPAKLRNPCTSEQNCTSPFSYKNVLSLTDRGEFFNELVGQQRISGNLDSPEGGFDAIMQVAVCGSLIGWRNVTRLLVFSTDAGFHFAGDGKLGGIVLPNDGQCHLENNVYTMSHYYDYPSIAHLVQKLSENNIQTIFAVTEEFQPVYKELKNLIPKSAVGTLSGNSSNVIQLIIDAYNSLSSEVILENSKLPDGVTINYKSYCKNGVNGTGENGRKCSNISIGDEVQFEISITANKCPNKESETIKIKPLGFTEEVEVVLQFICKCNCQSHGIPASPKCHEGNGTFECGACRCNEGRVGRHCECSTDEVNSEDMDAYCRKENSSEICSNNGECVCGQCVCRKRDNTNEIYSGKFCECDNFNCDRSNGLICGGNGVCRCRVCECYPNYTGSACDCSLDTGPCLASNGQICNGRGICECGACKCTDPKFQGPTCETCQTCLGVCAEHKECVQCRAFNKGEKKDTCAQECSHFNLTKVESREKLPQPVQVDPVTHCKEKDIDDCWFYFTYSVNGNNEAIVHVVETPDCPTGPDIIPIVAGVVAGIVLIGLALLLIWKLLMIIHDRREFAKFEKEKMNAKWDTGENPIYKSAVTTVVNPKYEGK
T1 sequence (P11688 45-898 limits assumed): as the sequence (P11688 45-898 limits assumed) above
T1 sequence (P11688 899-1053 limits assumed): as the sequence (P11688 899-1053 limits assumed) above
T1 sequence (P09055 21-798): as the sequence (P09055 21-798) above

## Ac-PHSCN-NH2 [ATN-161]
[1]; [12]
  percent change of body temperature following reperfusion: did not show any differences
  percent change of heart rate (bpm) following reperfusion: did not show any differences
  percent change of pulse distension following reperfusion: did not show any differences
[1]; IP ATN-161, vs Vehicle
  percent change of body weight following ischemic stroke: did not show any differences
Integrin α5β1 [2]; 1 mg/kg, PSD 3, n=8 vs Vehicle n=7, p≤0.05
  Infarct volume analysis of T2 weighted MRI scan following MCAo: reduces infarct volume; also recorded: decreased infarct volumes
Integrin α5β1 [2]; PSD3, 1 mg/kg IP after reperfusion, PSD1, PSD2, absent edema volume, mean±SD, n=8, Vehicle 17.9±4.677
  ADC analysis for infarct volume: 12.24±3.758
Integrin α5β1 [3]
  11-point Neuroscore on PSD1: no difference
Integrin α5β1 [4]
  Integrin α5β1 analysis at PSD3 in peri-infarct: 162166±23348 positive pixels
IgG
  IgG positive pixel analysis in the core: 16753±23348 positive pixels
Collagen IV
  qPCR collagen IV, ipsilateral cortex at PSD3: 0.8563±0.6898 fold change
MMP-9 [5]
  qPCR MMP-9, ipsilateral cortex at PSD3: 2.757±2.401 fold change
IL-1β
  qPCR IL-1β, ipsilateral cortex at PSD3: 11.89±9.235 fold change
CXCL12
  qPCR CXCL12, ipsilateral cortex at PSD3: 0.8488±0.2846 fold change
Claudin-5
  Claudin-5 positive pixels in the core at PSD3: 44220±19878 positive pixels
MMP-9 [6]; Vehicle 189516±170441, p=0.0450
  MMP-9 positive pixels at PSD3 in the peri-infarct: 42227±180171 positive pixels
MMP-9 [6]; Vehicle 443691±220951, p=0.0734
  MMP-9 positive pixels at PSD3 in the core: 232262±68098 positive pixels
α5β1 integrin [7]
  α5 expression (α5-positive pixel density) in cortex following BCAS: decreases α5β1 integrin expression compared to controls; also recorded: decreases α5 expression compared to controls
GFAP
  inflammation (GFAP-positive pixel density, astrocyte activation) following BCAS: decreases inflammation compared to controls
α5β1 integrin [8]
  cognitive outcome, y-maze % spontaneous alternation (working memory): improves cognitive outcome; also recorded: A positive trend is observed
[9]
  safety and tolerability in clinical trials: safe and well-tolerated; also recorded: limited side effects
[10]
  doses producing the most significant reduction in activity (angiogenesis and tumor growth): 1 to 5 mg/kg

## PHSRN
α5β1 integrin [11]
  effect after rat transient MCAO: neuroprotective, proangiogenic and increased neurogenesis
